Data published in the supplement of paper PMC10307832.

Assays:
Assay in all cases: relative viability (nuclei count vs DMSO), 5 days (fraction); higher = more cells survive
Dinaciclib + Dasatinib = compound: CCc1cnn2c(NCc3ccc[n+]([O-])c3)cc(N3CCCC[C@H]3CCO)nc12 [Dinaciclib] + Cc1nc(Nc2ncc(C(=O)Nc3c(C)cccc3Cl)s2)cc(N2CCN(CCO)CC2)n1 [Dasatinib] (partner 0.075 µM)
Summary of the method: (§1)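 A single step with final 0.05% Triton X-100, 1% formaldehyde and 1 ug/ml Hoechst fixed the cells and stained nuclei 5 days after treatment. Lung cancer cell lines in 1536-well plates had been treated by pin tool the day after seeding with one drug alone or a fixed anchor-drug dose plus five library-drug doses (not always all listed) in √10 steps, and nuclei were counted on 4× images. Relative viability is the ratio of nuclei in treated wells to nuclei in vehicle wells, taken as the median of duplicate plates.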

Dinaciclib + Olaparib = compound: CCc1cnn2c(NCc3ccc[n+]([O-])c3)cc(N3CCCC[C@H]3CCO)nc12 [Dinaciclib] + O=C(c1cc(Cc2n[nH]c(=O)c3ccccc23)ccc1F)N1CCN(C(=O)C2CC2)CC1 [Olaparib] (partner 8 µM)
Summary of the method: as §1

Dinaciclib + Tozasertib = compound: CCc1cnn2c(NCc3ccc[n+]([O-])c3)cc(N3CCCC[C@H]3CCO)nc12 [Dinaciclib] + Cc1cc(Nc2cc(N3CCN(C)CC3)nc(Sc3ccc(NC(=O)C4CC4)cc3)n2)n[nH]1 [Tozasertib] (partner 0.1 µM)
Summary of the method: as §1

Dinaciclib + Vorinostat = compound: CCc1cnn2c(NCc3ccc[n+]([O-])c3)cc(N3CCCC[C@H]3CCO)nc12 [Dinaciclib] + O=C(CCCCCCC(=O)Nc1ccccc1)NO [Vorinostat] (partner 1 µM)
Summary of the method: as §1

Dinaciclib + Linsitinib = compound: CCc1cnn2c(NCc3ccc[n+]([O-])c3)cc(N3CCCC[C@H]3CCO)nc12 [Dinaciclib] + C[C@]1(O)C[C@@H](c2nc(-c3ccc4ccc(-c5ccccc5)nc4c3)c3c(N)nccn32)C1 [Linsitinib] (partner 1 µM)
Summary of the method: as §1

Cell Line	relative viability (Dinaciclib + Dasatinib; first compound 0.009487 µM)	relative viability (Dinaciclib + Dasatinib; first compound 0.03 µM)	relative viability (Dinaciclib + Dasatinib; first compound 0.09487 µM)	relative viability (Dinaciclib + Dasatinib; first compound 0.3 µM)	relative viability (Dinaciclib + Olaparib; first compound 0.009487 µM)	relative viability (Dinaciclib + Olaparib; first compound 0.03 µM)	relative viability (Dinaciclib + Olaparib; first compound 0.09487 µM)	relative viability (Dinaciclib + Olaparib; first compound 0.3 µM)	relative viability (Dinaciclib + Tozasertib; first compound 0.009487 µM)	relative viability (Dinaciclib + Tozasertib; first compound 0.03 µM)	relative viability (Dinaciclib + Tozasertib; first compound 0.09487 µM)	relative viability (Dinaciclib + Tozasertib; first compound 0.3 µM)	relative viability (Dinaciclib + Vorinostat; first compound 0.009487 µM)	relative viability (Dinaciclib + Vorinostat; first compound 0.03 µM)	relative viability (Dinaciclib + Vorinostat; first compound 0.09487 µM)	relative viability (Dinaciclib + Vorinostat; first compound 0.3 µM)	relative viability (Dinaciclib + Linsitinib; first compound 0.009487 µM)	relative viability (Dinaciclib + Linsitinib; first compound 0.03 µM)	relative viability (Dinaciclib + Linsitinib; first compound 0.09487 µM)	relative viability (Dinaciclib + Linsitinib; first compound 0.3 µM)
201T	0.621	0.428	0.265	0.245	0.991	0.34	0.225	0.223	0.915	0.293	0.274	0.263	1.24	0.74	0.214	0.213	1.11	1	0.362	0.368
A549					0.276	0.0567	0.0423	0.0382									0.561	0.165	0.0454	0.0453
A-427	0.486	0.111	0.0662	0.0725	0.459	0.104	0.0978	0.101	0.236	0.0917	0.0666	0.0775	0.699	0.216	0.111	0.117	1.09	0.512	0.0865	0.0756
ABC-1	0.466	0.133	0.137	0.0934	0.807	0.316	0.272	0.252	0.199	0.174	0.11	0.0868	0.845	0.419	0.297	0.246	0.665	0.278	0.166	0.126
BEN	0.362	0.435	0.157	0.153	0.956	0.457	0.258	0.26	0.568	0.638	0.268	0.348	0.67	0.63	0.345	0.308	1.01	0.68	0.216	0.21
CAL-12T	0.11	0.0662	0.082	0.0795	0.589	0.134	0.13	0.141	0.166	0.0862	0.0939	0.0838	0.511	0.0992	0.1	0.131	0.452	0.175	0.112	0.145
COR-L23	0.349	0.0817	0.0588	0.0557	0.356	0.112	0.0765	0.0765	0.214	0.0848	0.0671	0.0704	0.41	0.0812	0.087	0.0797	0.736	0.0901	0.0662	0.0681
COR-L 105	0.25	0.201	0.191	0.187	0.957	0.391	0.312	0.269	0.369	0.304	0.25	0.208	0.679	0.444	0.302	0.302	0.55	0.239	0.245	0.249
ChaGo-K-1	0.529	0.154	0.116	0.127	0.371	0.145	0.0867	0.0975	0.22	0.168	0.132	0.111	0.803	0.197	0.139	0.112				
EKVX	0.548	0.415	0.159	0.223	0.721	0.346	0.123	0.139	0.398	0.253	0.074	0.0722	0.612	0.472	0.167	0.226	0.961	0.51	0.0946	0.137
EMC-BAC-2	0.312	0.117	0.13	0.109	0.485	0.238	0.187	0.176	0.265	0.209	0.142	0.121	0.36	0.166	0.152	0.143	0.868	0.235	0.14	0.161
EPLC-272H	0.381	0.089	0.0366	0.0325	0.274	0.0455	0.0344	0.036	0.229	0.0357	0.0443	0.0467	0.242	0.0369	0.0282	0.0401	1.29	0.665	0.33	0.0559
H3255	0.289	0.313	0.271	0.195	0.536	0.253	0.2	0.19	0.678	0.578	0.256	0.218	0.705	0.51	0.211	0.205	1.09	0.493	0.177	0.186
HARA	0.254	0.22	0.0491	0.0506	0.366	0.0835	0.0659	0.14	0.105	0.0553	0.0492	0.0424	0.527	0.331	0.0816	0.0937	0.758	0.0716	0.0363	0.038
